How the values were obtained:
[1] = system: vaginal epithelium (hornification); experiment: Vaginal swab test of the castrated rat; assay type: in vivo; conditions: subcutaneous, 1 mg
Description: One example of compounds having possible antiestrogenic effects which are not included within the scope of this invention are those disclosed in U.S. Pat. No. 4,055,641 to Benson et al which are primarily anabolic androgens. For example, the compound preferred by Benson et al, 3,17-dioxoandrost-4-ene-19-al (Column 3, lines 67-68) was tested in the vaginal swab test of the castrated rat after subcutaneous application in a dosage of 1 mg. […] In addition, the compounds of Benson et al were tested on intact (not castrated) male animals or probands. These estrogenous substances acted on the prostate by removal of androgen, not by displacing estrogen as for the antiestrogens used in this invention. The difference between the antiestrogens acting through an antagonism to estrogen receptors, i.e., those used in this invention, and those which are primariy androgenic or gestogenic in activity with some simultaneous antiestrogenic effect is also discussed in Nishino, supra.

[2] = system: Estradiol-stimulated Uterus Weight of Infantile Mice; experiment: Antiestrogenic effect on the estradiol-stimulated uterus weight of infantile mice (uterus growth test); assay type: in vivo; conditions: for Effect on uterus weight of the estradiol-stimulated uterus of infantile mice, in words: s.c., 0.3-300 μg/animal/day
Description: Daily for 3 days 0.03 μg of estradiol and measured dosages of the antiestrogen to be tested are simultaneously applied to castrated or infantile mice subcutaneously. The animals are killed on the fourth day, and the uteri are removed and weighed without contents (See Table 1). The same test is carried out on castrated or infantile rats using 0.1 μg of estradiol.
Antiestrogenic Effect of Ru-16117 and Tamoxifen on the Estradiol-stimulate
d Uterus Weight of Infantile Mice
(Mode of Administration: Subcutaneous - Number of Animals per Group:
Ru-16117, Tamoxifen and Estradiol are dissolved in a medium consisting of
benzylbenzoate/castor oil (1:10)

prostate hyperplasia [3] = experiment: Prostate hyperplasia in younger dogs treated with estrogen or estrogen/androgen mixture, additional treatment with anti-androgen; assay type: in vivo, dog; conditions: additional cyproterone acetate
Excerpt: Also in the dog, there is a proliferation primarily of the fibromuscular portion of the prostate. It is also possible to cause the aspects of the disease in younger dogs by treatment with an estrogen or an estrogen/androgen mixture.

prostate hyperplasia [4] = conditions: cited from earlier work
hyperplastic prostate = conditions: one-year study, patients; cited from earlier work
[5] = 3 μg/animal/day s.c. + 0.03 μg estradiol/animal/day, 3 days
[6] = 3 μg/animal/day s.c. + 0.03 μg estradiol/animal/day, 3 days, 8 animals per group
[7] = 30 μg/animal/day s.c. + 0.03 μg estradiol/animal/day, 3 days
[8] = 30 μg/animal/day s.c. + 0.03 μg estradiol/animal/day, 3 days, 8 animals per group

C[C@]12CC[C@H]3[C@@H](CCC4=CC(=O)CC[C@@]43C=O)[C@@H]1CCC2=O [3,17-dioxoandrost-4-ene-19-al]
Estrogenous effect [1]: strongly estrogenous effect | Hornification of the vaginal epithelium [1]: Hornification of the vaginal epitelium took place

C[C@]12CC[C@@H]3c4ccc(O)cc4CC[C@H]3[C@@H]1CC[C@@H]2O [Estradiol]
Uterus Weight, Average Value ± Standard Deviation ([2]; single administration of 0.03 μg estradiol once daily over 3 days, s.c. (untreated control 11.8 ± 1.3)): 63.9 ± 6.2 mg

C#C[C@]1(O)CC[C@H]2[C@@H]3CCc4cc(O)ccc4[C@H]3[C@H](OC)C[C@@]21C [Ru-16117, 11α-methoxy-17α-ethynyl-1,3,5(10)-estratriene-3,17β-diol]
% Inhibition, Decrease of Uterus Weight in Comparison to Single Estradiol Administration ([2]; 0.3 μg/animal/day s.c. + 0.03 μg estradiol/animal/day, 3 days): 8% | Uterus Weight, Average Value ± Standard Deviation ([2]; 0.3 μg/animal/day s.c. + 0.03 μg estradiol/animal/day, 3 days, 8 animals per group): 60.0 ± 2.4 mg | % Inhibition, Decrease of Uterus Weight in Comparison to Single Estradiol Administration [2, 5]: 27% | Uterus Weight, Average Value ± Standard Deviation [2, 6]: 49.8 ± 1.6 mg | % Inhibition, Decrease of Uterus Weight in Comparison to Single Estradiol Administration [2, 7]: 58% | Uterus Weight, Average Value ± Standard Deviation [2, 8]: 34.3 ± 2.3 mg | Effectiveness compared with Tamoxifen ([2]; "somewhat more effective than Tamoxifen"): somewhat more | Effect on uterus weight of the estradiol-stimulated uterus of infantile mice, in words ([2]; 3 days): pronounced dosagedependent decrease in uterus weight

CC/C(=C(\c1ccccc1)c1ccc(OCCN(C)C)cc1)c1ccccc1 [Tamoxifen, (Z)-2-[p-(1,2-diphenyl-1-butenyl)-phenoxy]-N,N-dimethylethylamine]
% Inhibition, Decrease of Uterus Weight in Comparison to Single Estradiol Administration [2, 5]: 11% | Uterus Weight, Average Value ± Standard Deviation [2, 6]: 57.5 ± 2.1 mg | % Inhibition, Decrease of Uterus Weight in Comparison to Single Estradiol Administration [2, 7]: 40% | Uterus Weight, Average Value ± Standard Deviation [2, 8]: 43.3 ± 3.1 mg | % Inhibition, Decrease of Uterus Weight in Comparison to Single Estradiol Administration ([2]; 100 μg/animal/day s.c. + 0.03 μg estradiol/animal/day, 3 days): 46% | Uterus Weight, Average Value ± Standard Deviation ([2]; 100 μg/animal/day s.c. + 0.03 μg estradiol/animal/day, 3 days, 8 animals per group): 39.7 ± 3.1 mg | % Inhibition, Decrease of Uterus Weight in Comparison to Single Estradiol Administration ([2]; 300 μg/animal/day s.c. + 0.03 μg estradiol/animal/day, 3 days): 58% | Uterus Weight, Average Value ± Standard Deviation ([2]; 300 μg/animal/day s.c. + 0.03 μg estradiol/animal/day, 3 days, 8 animals per group): 34.1 ± 4.3 mg | Effect on uterus weight of the estradiol-stimulated uterus of infantile mice, in words ([2]; 3 days): pronounced dosagedependent decrease in uterus weight

CC(=O)O[C@]1(C(C)=O)CC[C@H]2[C@@H]3C=C(Cl)C4=CC(=O)[C@@H]5C[C@@H]5[C@]4(C)[C@H]3CC[C@@]21C [cyproterone acetate, 6-chloro-17-hydroxy-1α,2α-methylenepregna-4,6-diene-3,20-dione acetate]
Effect on gland parenchyma (prostate hyperplasia [3]): total atrophy of the gland parenchyma | Effect on proliferation of the interstitium (prostate hyperplasia [3]): proliferation of the interstitium is not affected

CCCCCC(=O)O[C@]1(C(C)=O)CC[C@H]2[C@@H]3CCC4=CC(=O)CC[C@@H]4[C@H]3CC[C@@]21C [gestonorone caproate]
Maximum flow value (flow of urine per unit time) (prostate hyperplasia [4]; in vivo): improved | Reduction of the size of the adenoma (prostate hyperplasia [4]; in vivo): A marked reduction of the size of the adenoma, however, also cannot be achieved | Miction period (prostate hyperplasia [4]; prolonged prior to treatment): markedly shortened | Effect compared with phyto-preparations (prostate hyperplasia [4]; prostate hyperplasia): a better effect

CC[C@H](CC[C@@H](C)[C@H]1CC[C@H]2[C@@H]3CC=C4C[C@@H](O)CC[C@]4(C)[C@H]3CC[C@]12C)C(C)C [β-sitosterol]
Effectiveness in prostate hyperplasia (hyperplastic prostate): ineffective
